Results: ChEMBL document CHEMBL1201862, “PubChem BioAssay data set” (2004)
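Five concentrations, 48 hours, 96-well plates. Abbreviation: GI50, concentration required for 50% inhibition of growth.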 The source made the active and inactive calls. No stated cut-off is given here; in the data, active = GI50 up to about 1.1 µM and inactive = higher.

Key:
Assay in all cases: NCI anticancer screen, dose series, 48 h
SNB-78 = test system: SNB-78
DMS-273 = test system: DMS-273
HOP-18 = test system: HOP-18
DLD-1 = test system: DLD-1
XF498 = test system: XF498
DMS-114 = test system: DMS-114
M19-MEL = test system: M19-MEL
RXF 631 = test system: RXF 631
LXFL 529 = test system: LXFL 529

Measured: GI50

CCS/C(=N\c1ccccc1)SC
inactive: SNB-78 > 100 µM | DMS-273 > 100 µM | HOP-18 > 100 µM | DLD-1 > 100 µM | XF498 > 100 µM | DMS-114 > 100 µM | M19-MEL > 100 µM | RXF 631 > 100 µM | LXFL 529 > 100 µM
